Laboratory results: patent US20250161311A1, “SMALL MOLECULE DIRECTED URINARY BLADDER TISSUE REGENERATION” (Northwestern University, priority 2022, published 2025)
Values joined by “and” are separate entries in the source; they are usually repeats but may differ in a detail not shown here. Identical values can stand only once.

Key:
[1] = In vitro release profile of SR1 coupled to POC scaffolds, measured by spectroscopy; assay type: physicochemical
Description: SR1 was coupled to POC (poly 1,8 octane diol co-citrate) scaffolds and its in vitro release profile was measured by spectroscopy, based upon the aromatic ring structures contained within SR1 (FIG. 5A). […] For pilot in vivo studies, rats underwent an ˜70% cystectomy followed by augmentation with POC or POC/SR1 (1 mM SR1). POC animals were instilled with saline once at the beginning of the study and all animals were euthanized at 4 weeks post-augmentation. […] Therefore, the inventor concludes that coupling of SR1 to a scaffold, e.g., a solid support, is an effective means of delivery of SR1 to subjects in need thereof.

[2] = test system: rat bladders; test: Rat bladder urodynamic studies (UDS); assay type: in vivo, nude rats; details: for bladder compliance: compliant >60%; for leak point pressure (LPP): normal rat ~40
Description: SR1 Induces Bladder Tissue Regeneration in vivo—In the following in vivo studies, nude rats underwent an approximate 60-70% bladder cystectomy and were augmented with a POC scaffold and then: 1) instilled with saline (Saline); 2) instilled with 300 nM SR1 (SR1:1×/week for 2 weeks); or 3) seeded with human MSC/CD34+HSCs (Cell-Seeded). Animals were sacrificed 10 weeks post-augmentation. The inventors have developed, characterized, and successfully utilized CBBs (POC) in bladder regenerative settings over the last 10 years. The inventors' established human MSC/CD34+HSC seeded POC scaffold bladder augmentation model was utilized in this study to directly compare specific regenerative bladder biological metrics against SR1 treated animals to determine whether SR1 could be used in lieu of MSCs and CD34+HSCs for bladder tissue regeneration. Rat Bladder Urodynamic Studies (UDS) Rat bladders were filled with saline until a bladder contraction occurred (pre- and 10 weeks post-augmentation). Bladder pressures rose during the filling until bladder contractions occurred at intravesical pressures of 25-40 cm H2O. Saline instilled animals led to a slight decrease in voiding pressures and decreased bladder compliance (FIG. 4A). SR1 instilled animals led to a decrease in intravesical pressures during voiding from 40 to 25 cm H2O (pre-augmentation to post-augmentation, respectively) with increased bladder compliance. […] With regards to leak point pressures (LPP); Saline, SR1 and Cell-Seeded groups (pre/post aug) were: 39.49±1.35/46.48±2.42; 39.66±0.81/37.1±1.47; 38.6±1.41/35.5±2.40 cm H2O, respectively. Compliance values for the same groups were: 68.77±2.49/39.3±8.55; 69.57±1.95/72.38±3.13; 46.23±12.9/89.59±1.32 percent, respectively. Normal LPP for rat is ˜40 cm H2O and compliant bladders are defined at >60%. Percent bladder capacity at 10 weeks was also measured (FIG. 4B).

[3] = test system: primary human UCs; test: SR1 treatment of primary human urothelial cells (UCs) in vitro, AhR/Ki-67 co-staining and manual counting; assay type: cell-based; details: for peak number of nAhR+UCs: D7, means±SE
Description: SR1 Treatment of UCs in vitro Equivalent numbers of primary human UCs were treated once with SR1 (150 nM, 200 nM, 250 nM, or untreated) and allowed to grow in culture for 13 days. […] An assortment of organ specific stem cells initially maintain a high nucleus/cytoplasm ratio which gradually decreases as the cell differentiates.

[4] = test system: regenerated bladder tissue; test: Bladder tissue vascularization and peripheral nerve regeneration in vivo (IF staining); parameters: species or system nude rats; details: 10 weeks post-augmentation
Description: SR1 Induces Bladder Tissue Regeneration in vivo—In the following in vivo studies, nude rats underwent an approximate 60-70% bladder cystectomy and were augmented with a POC scaffold and then: 1) instilled with saline (Saline); 2) instilled with 300 nM SR1 (SR1:1×/week for 2 weeks); or 3) seeded with human MSC/CD34+HSCs (Cell-Seeded). Animals were sacrificed 10 weeks post-augmentation. The inventors have developed, characterized, and successfully utilized CBBs (POC) in bladder regenerative settings over the last 10 years. The inventors' established human MSC/CD34+HSC seeded POC scaffold bladder augmentation model was utilized in this study to directly compare specific regenerative bladder biological metrics against SR1 treated animals to determine whether SR1 could be used in lieu of MSCs and CD34+HSCs for bladder tissue regeneration. Bladder instillation of SR1 promoted vascularization of augmented bladders along the periphery and core of grafts. […] The level of tissue vascularization may be increased by changing the concentration of SR1 instilled and/or the dosing regimen.

[5] = test system: regenerated bladder tissue; test: Regenerated bladder tissue muscle content (Trichrome) and urothelium width after cystectomy and POC scaffold augmentation; assay type: in vivo, nude rats; details: 10 weeks post-augmentation, means±SE
Description: SR1 Induces Bladder Tissue Regeneration in vivo—In the following in vivo studies, nude rats underwent an approximate 60-70% bladder cystectomy and were augmented with a POC scaffold and then: 1) instilled with saline (Saline); 2) instilled with 300 nM SR1 (SR1:1×/week for 2 weeks); or 3) seeded with human MSC/CD34+HSCs (Cell-Seeded). Animals were sacrificed 10 weeks post-augmentation. The inventors have developed, characterized, and successfully utilized CBBs (POC) in bladder regenerative settings over the last 10 years. The inventors' established human MSC/CD34+HSC seeded POC scaffold bladder augmentation model was utilized in this study to directly compare specific regenerative bladder biological metrics against SR1 treated animals to determine whether SR1 could be used in lieu of MSCs and CD34+HSCs for bladder tissue regeneration. Muscle to collagen ratios are indicative of overall bladder tissue regeneration. […] Normal bladder tissue has an approximate 1:1 to muscle to collagen. There was no statistical difference with regards to muscle regeneration between the two groups. […] This included abnormal voiding, incontinence and subsequent infection, bladder distension, ureteral or renal dysfunction, and […]. […]

CC(C)n1cnc2c(NCCc3ccc(O)cc3)nc(-c3csc4ccccc34)nc21 [SR1, stemregenin 1]
release profile of SR1 from POC scaffolds ([1]; 1 or 2 mM starting concentrations, over 30 days, compared to POC scaffolds in saline): gradual release | cumulative release of SR1 from POC scaffolds, fold higher with 2 mM SR1 ([1]; 30 day time point, 2 mM versus 1 mM starting concentration): ~1.4 × | intravesical pressure during voiding ([2]; 10 weeks post-augmentation): 25 cm H2O | bladder compliance ([2]; 10 weeks post-augmentation): 72.38±3.13% | leak point pressure (LPP) ([2]; 10 weeks post-augmentation): 37.1±1.47 cm H2O | intravesical pressure during voiding ([2]; pre-augmentation (baseline)): 40 cm H2O | bladder compliance ([2]; pre-augmentation (baseline)): 69.57±1.95% | leak point pressure (LPP) ([2]; pre-augmentation (baseline)): 39.66±0.81 cm H2O | peak number of nAhR+UCs ([3]; 150 nM SR1, treated once): 159.75±8.44 cells | peak number of nAhR+UCs ([3]; 200 nM SR1, treated once): 310.75±28.73 cells | peak number of nAhR+UCs ([3]; 250 nM SR1, treated once): 342.75±20.97 cells | expansion of nAhR+/Ki-67+UCs compared to untreated ([3]; D7): ~6 × | UCs with higher nucleus/cytoplasm ratios ([3]; nAhR+UCs, D7, 200 nM): modest increase | vascularization of regenerated bladder tissue ([4]; means±SE): 3.60±0.24% | peripheral nerve regeneration (βIII tubulin IF staining) ([4]; core and throughout the graft): abundance of peripheral nerve regeneration | muscle content of regenerated bladder tissue ([5]; SR1 300 nM instilled 1×/week for 2 weeks): ~50% and 47.00±1.81% | urothelium width ([5]; unmanipulated rats 50-70 μm): 52.98±2.55 μm
